# Results published in patent publication US20250122174A1 (Shenzhen Yuanli Shenwan Innovative Medicine Co., Ltd., priority 2022, published 2025).
# Target: HPK1 (Homo sapiens (Human), UniProt Q92918)
# Experiment: HPK1 Inhibition Assay (ADP-Glo kinase assay)
# Assay type: biochemical
# Details: ATP 10 μM
# How it was run: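 ADP-Glo luminescence read-out after 1 h room-temperature kinase reaction with 10 μM ATP and 0.1 μg/ml MBP. Recombinant human HPK1 at 7.5 ng/μl; buffer 40 mM Tris pH 7.5, 20 mM MgCl2. Compounds serially diluted 5-fold over 10 points from 10 mM DMSO stock.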
# Sequence of HPK1 (Q92918 1-346 limits assumed): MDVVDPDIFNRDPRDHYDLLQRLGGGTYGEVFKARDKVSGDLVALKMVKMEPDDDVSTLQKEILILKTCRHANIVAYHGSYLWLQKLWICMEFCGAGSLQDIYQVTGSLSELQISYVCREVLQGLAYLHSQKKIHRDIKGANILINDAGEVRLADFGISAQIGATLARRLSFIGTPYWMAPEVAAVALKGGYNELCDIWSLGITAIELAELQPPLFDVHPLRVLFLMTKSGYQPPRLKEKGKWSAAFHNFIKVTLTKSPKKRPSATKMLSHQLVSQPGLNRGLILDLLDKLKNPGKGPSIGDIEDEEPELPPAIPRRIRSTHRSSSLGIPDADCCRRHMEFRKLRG
row,Structure (SMILES),IC50
1,"COc1cccc(F)c1-n1cccc(C(=O)Nc2cc(F)c3c(cnn3C)c2N2C[C@H]3C[C@@H]2CN3)c1=O [Example 53, N-(4-((1R,4R)-2,5-diazabicyclo[2.2.1]heptan-2-yl)-7-fluoro-1-methyl-1H-indazol-5-yl)-1-(2-fluoro-6-methoxyphenyl)-2-oxo-1,2-dihydropyridine-3-carboxamide]",100 to 1000 nM
2,"COc1ccc(Cl)c(F)c1-c1nccc(C(=O)Nc2cc(F)ccc2N2C[C@H]3C[C@@H]2CN3)c1F [Example 4, N-(2-((1R,4R)-2,5-diazabicyclo[2.2.1]heptan-2-yl)-5-fluorophenyl)-2-(3-chloro-2-fluoro-6-methoxyphenyl)-3-fluoroisonicotinamide]",100 to 1000 nM
3,"Cc1nc2c(N3CCN(C)CC3)c(NC(=O)c3ccc(=O)n(-c4c(F)cccc4F)n3)ccc2n1C [Example 69, 1-(2,6-difluorophenyl)-N-(1,2-dimethyl-4-(4-methylpiperazin-1-yl)-1H-benzo[d]imidazol-5-yl)-6-oxo-1,6-dihydropyridazine-3-carboxamide]",100 to 1000 nM
4,"CC(C)c1nc2c(N3C[C@@H]4[C@H](N)[C@@H]4C3)c(NC(=O)c3ccc(=O)n(-c4c(F)cccc4F)n3)cc(F)c2n1C [Example 145, N-(4-((1R,5S,6r)-6-amino-3-azabicyclo[3.1.0]hexane-3-yl)-7-fluoro-2-isopropyl-1-methyl-1H-benzo[d]imidazol-5-yl)-1-(2,6-difluorophenyl)-6-oxo-1,6-dihydropyridazine-3-carboxamide]",< 100 nM
5,"N#Cc1ccncc1-c1ccc(NC(=O)c2ccc(=O)n(-c3c(F)cccc3F)n2)c(N2CCC(N)CC2)c1 [Example 346, N-(2-(4-aminopiperidin-1-yl)-4-(4-cyanopyridin-3-yl)phenyl)-1-(2,6-difluorophenyl)-6-oxo-1,6-dihydropyridazine-3-carboxamide]",< 100 nM
6,"CC(C)c1nc2c(N3CC[C@](N)(C(F)(F)F)C3)c(NC(=O)c3ccc(=O)n(-c4c(F)cccc4F)n3)ccc2n1C (single isomer, unassigned) [Example 138]",< 100 nM
7,"COc1cccc(F)c1-c1nccc(C(=O)Nc2ccc3c(nc(C)n3C)c2N2CCC[C@H]2CO)c1F [Example 9, 3-fluoro-2-(2-fluoro-6-methoxyphenyl)-N-(4-((S)-2-(hydroxymethyl)pyrrolidin-1-yl)-1,2-dimethyl-1H-benzo[d]imidazol-5-yl)isonicotinamide]",100 to 1000 nM
8,"CC[C@@H]1CN(c2c(NC(=O)c3ccc(=O)n(-c4c(F)cccc4F)n3)ccc3c2cnn3C(C)C)C[C@@H]1N (single isomer, unassigned) [Example 196]",< 100 nM
9,"COc1cccc(F)c1-c1cccc(C(=O)Nc2ccc3c(nc(C)n3C)c2N2C[C@@H]3C[C@H]2CN3)[n+]1[O-] [Example 60, 2-((4-((1S,4S)-2,5-diazabicyclo[2.2.1]heptan-2-yl)-1,2-dimethyl-1H-benzo[d]imidazol-5-yl)carbamoyl)-6-(2-fluoro-6-methoxyphenyl)pyridine 1-oxide]",< 100 nM
10,"[2H]C([2H])([2H])C([2H])(n1ncc2c(N3C[C@H](N)C(C)(C)C3)c(NC(=O)c3ccc(=O)n(-c4c(F)cccc4F)n3)ccc21)C([2H])([2H])[2H] [Example 281, (R)-N-(4-(4-amino-3,3-dimethylpyrrolidin-1-yl)-1-(propan-2-yl-d7)-1H-indazol-5-yl)-1-(2,6-difluorophenyl)-6-oxo-1,6-dihydropyridazine-3-carboxamide]",< 100 nM
11,"Cc1nc2c(N3CC[C@H](N)C3)c(NC(=O)c3ccc(=O)n(-c4c(F)cccc4F)n3)ccc2n1C [Example 72, (S)-N-(4-(3-aminopyrrolidin-1-yl)-1,2-dimethyl-1H-benzo[d]imidazol-5-yl)-1-(2,6-difluorophenyl)-6-oxo-1,6-dihydropyridazine-3-carboxamide]",< 100 nM
12,"CC(C)c1nc2c(N3CC[C@H](N)C3)c(NC(=O)c3ccnn(-c4c(F)cccc4F)c3=O)ccc2n1C [Example 46, (S)—N-(4-(3-aminopyrrolidin-1-yl)-2-isopropyl-1-methyl-1H-benzo[d]imidazol-5-yl)-2-(2,6-difluorophenyl)-3-oxo-2,3-dihydropyridazine-4-carboxamide]",< 100 nM

# Further lines, results first:
row,IC50,Structure (SMILES)
1,< 100 nM,[2H]C([2H])([2H])C(n1cc2c(N3C[C@H](N)C4(CC4)C3)c(NC(=O)c3ccc(=O)n(-c4c(F)cccc4F)n3)ccc2n1)C([2H])([2H])[2H] [Example 339]
2,< 100 nM,"N[C@H]1CN(c2c(NC(=O)c3ccc(=O)n(-c4c(F)cccc4F)n3)ccc3nn(C4(C(F)(F)F)CC4)cc23)CC12CC2 (single isomer, unassigned) [Example 313]"
3,< 100 nM,"[2H]C([2H])([2H])C(n1ncc2c(N3C[C@@H](N)C(C)(C)C3)c(NC(=O)c3ccc(=O)n(-c4c(F)cccc4F)n3)ccc21)C([2H])([2H])[2H] [Example 280, (S)-N-(4-(4-amino-3,3-dimethylpyrrolidin-1-yl)-1-(propan-2-yl-1,1,1,3,3,3-d6)-1H-indazol-5-yl)-1-(2,6-difluorophenyl)-6-oxo-1,6-dihydropyridazine-3-carboxamide]"
4,< 100 nM,"N[C@@H]1CCN(c2c(NC(=O)c3ccc(=O)n(-c4c(F)cccc4F)n3)ccc3c2cnn3C2CCCC2)C1 [Example 287, (R)-N-(4-(3-aminopyrrolidin-1-yl)-1-cyclopentyl-1H-indazol-5-yl)-1-(2,6-difluorophenyl)-6-oxo-1,6-dihydropyridazine-3-carboxamide]"
5,< 100 nM,"CC(C)Cn1ncc2c(N3CC[C@@H](N)C3)c(NC(=O)c3ccc(=O)n(-c4c(F)cccc4F)n3)ccc21 [Example 294, (R)-N-(4-(3-aminopyrrolidin-1-yl)-1-isobutyl-1H-indazol-5-yl)-1-(2,6-difluorophenyl)-6-oxo-1,6-dihydropyridazine-3-carboxamide]"
6,< 100 nM,"COc1cccc(F)c1-c1cccc(C(=O)Nc2ccc3c(cnn3C)c2N2C[C@H]3C[C@@H]2CN3)[n+]1[O-] [Example 56, 2-((4-((1R,4R)-2,5-diazabicyclo[2.2.1]heptan-2-yl)-1-methyl-1H-indazol-5-yl)carbamoyl)-6-(2-fluoro-6-methoxyphenyl)pyridine 1-oxide]"
7,< 100 nM,"CC(C)n1ncc2c(N3CCC[C@@H](N)C3)c(NC(=O)c3ccc(=O)n(-c4c(F)cccc4F)n3)ccc21 [Example 183, (R)-N-(4-(3-aminopiperidin-1-yl)-1-isopropyl-1H-indazol-5-yl)-1-(2,6-difluorophenyl)-6-oxo-1,6-dihydropyridazine-3-carboxamide]"
8,< 100 nM,"N#Cc1ccncc1-c1ccc(NC(=O)c2ccc(=O)n(-c3c(F)cccc3F)n2)c(N2CCC[C@@H](N)C2)c1 [Example 345, (R)-N-(2-(3-aminopiperidin-1-yl)-4-(4-cyanopyridin-3-yl)phenyl)-1-(2,6-difluorophenyl)-6-oxo-1,6-dihydropyridazine-3-carboxamide]"
9,< 100 nM,"N[C@H]1CN(c2c(NC(=O)c3ccc(=O)n(-c4c(F)cccc4F)n3)ccc3c2cnn3[C@@H]2CCOC2)CC12CC2 [Example 250, N-(4-((R)-7-amino-5-azaspiro[2.4]heptan-5-yl)-1-((R)-tetrahydrofuran-3-yl)-1H-indazol-5-yl)-1-(2,6-difluorophenyl)-6-oxo-1,6-dihydropyridazine-3-carboxamide]"
10,< 100 nM,"CC(C)n1ncc2c(N3CC[C@@H](CN)C3)c(NC(=O)c3ccc(=O)n(-c4c(F)cccc4F)n3)cc(F)c21 [Example 204, (S)-N-(4-(3-(aminomethyl)pyrrolidin-1-yl)-7-fluoro-1-isopropyl-1H-indazol-5-yl)-1-(2,6-difluorophenyl)-6-oxo-1,6-dihydropyridazine-3-carboxamide]"
11,< 100 nM,"CC(C)n1ncc2c(N3CCC(N)CC3)c(NC(=O)c3ccc(=O)n(-c4c(F)cccc4F)n3)cc(F)c21 [Example 217, N-(4-(4-aminopiperidin-1-yl)-7-fluoro-1-isopropyl-1H-indazol-5-yl)-1-(2,6-difluorophenyl)-6-oxo-1,6-dihydropyridazine-3-carboxamide]"
12,< 100 nM,"CC(C)c1nc2c(N3CC[C@@H](N(C)C)C3)c(NC(=O)c3ccc(=O)n(-c4c(F)cccc4F)n3)ccc2n1C [Example 126, (R)-1-(2,6-difluorophenyl)-N-(4-(3-(dimethylamino)pyrrolidin-1-yl)-2-isopropyl-1-methyl-1H-benzo[d]imidazol-5-yl)-6-oxo-1,6-dihydropyridazine-3-carboxamide]"
13,< 100 nM,"COCc1nc2c(N3CC[C@H](N)C3)c(NC(=O)c3ccnc(-c4c(F)cccc4OC)c3F)ccc2n1C [Example 15, N-{4-[(3S)-3-aminopyrrolidin-1-yl]-2-(methoxymethyl)-1-methyl-1,3-benzodiazol-5-yl}-3-fluoro-2-(2-fluoro-6-methoxyphenyl) pyridine-4-carboxamide]"
14,< 100 nM,"CC1(C)CN(c2c(NC(=O)c3ccc(=O)n(-c4c(F)cccc4F)n3)ccc3nn(C4CC4)cc23)C[C@H]1N [Example 335, (S)-N-(4-(4-amino-3,3-dimethylpyrrolidin-1-yl)-2-cyclopropyl-2H-indazol-5-yl)-1-(2,6-difluorophenyl)-6-oxo-1,6-dihydropyridazine-3-carboxamide]"
15,< 100 nM,"CC(C)c1nc2c(N3CC[C@@H](NCC(C)(C)O)C3)c(NC(=O)c3ccc(=O)n(-c4c(F)cccc4F)n3)ccc2n1C [Example 129, (R)-1-(2,6-difluorophenyl)-N-(4-(3-((2-hydroxy-2-methylpropyl)amino)pyrrolidin-1-yl)-2-isopropyl-1-methyl-1H-benzo[d]imidazol-5-yl)-6-oxo-1,6-dihydropyridazine-3-carboxamide]"
16,< 100 nM,"C[C@@H]1CN(c2c(NC(=O)c3ccc(=O)n(-c4c(F)cccc4F)n3)ccc3c2cnn3C2CCC2)C[C@@H]1N [Example 296, N-(4-((3R,4R)-3-amino-4-methylpyrrolidin-1-yl)-1-cyclobutyl-1H-indazol-5-yl)-1-(2,6-difluorophenyl)-6-oxo-1,6-dihydropyridazine-3-carboxamide]"
